Assay results as given in patent US20100212218A1, “5-(SUBSTITUTED METHYL) 2-METHYLFURAN” (FURANIX TECHNOLOGIES B.V., priority 2007, published 2010).

Assay: Fuel solubility: miscibility in blends with commercial diesel
Assay type: physicochemical
From the text: Fuel solubility is a primary concern for diesel fuel applications. Not all highly polar oxygenates have good solubility in the current commercial diesel fuels.

[1] = all blend ratios with commercial diesel

miscibility with commercial diesel (5 vol % blend with commercial diesel)	miscibility with commercial diesel (25 vol % blend with commercial diesel)	miscibility with commercial diesel (40 vol % blend with commercial diesel)	SMILES	miscibility with commercial diesel [1]
–	–	–	CCOCc1ccc(C)o1 [5-(ethoxymethyl)-2-methylfuran]	miscible in all blend ratio's
–	–	–	Cc1ccc(COC(C)(C)C)o1 [5-(tertbutoxymethyl)-2-methylfuran]	miscible in all blend ratio's
completely miscible	phase separation occurs	phase separation occurs	CCOCc1ccc(C=O)o1 [EMF, 5-(ethoxymethyl)furfural]	–
